Experimental data taken from ChEMBL document CHEMBL1151537 (Bioorg Med Chem Lett, 1994).

Tests used:
[1] = molecular target: Melatonin receptor (Gallus gallus, UniProt P49288+P51050+P49285); test: Binding affinity towards melatonin receptor using 2-[125I]iodomelatonin as radioligand in chick brain membranes; format: cell membranes, Membrane
[2] = organism: Xenopus laevis; test: Agonistic activity was determined in a pigment aggregation model using cultured melanophores isolated from the neural crest of Xenopus laevis embryos; agonist; format: functional; conditions: frog; filed as agonist
[3] = organism: Xenopus laevis; test: Concentration producing half maximal aggregation of pigment granules in the centre of the melanophore isolated from the neural crest of Xenopus laevis embryos was determined; format: functional, frog
[4] = organism: Xenopus laevis; test: Agonistic activity was determined in a pigment aggregation model using cultured melanophores isolated from the neural crest of Xenopus laevis embryos; partial; format: functional; conditions: frog; filed as partial agonist
[5] = organism: Xenopus laevis; test: Agonistic activity was determined in a pigment aggregation model using cultured melanophores isolated from the neural crest of Xenopus laevis embryos; Partial; format: functional; conditions: frog; filed as partial agonist
[6] = organism: Xenopus laevis; test: Agonistic activity was determined in a pigment aggregation model using cultured melanophores isolated from the neural crest of Xenopus laevis embryoss; agonist; format: functional; conditions: frog; filed as agonist

CC(=O)NCCc1c[nH]c2ccccc12
Ki [1]: 701 nM

O=C(NCCc1c(Br)[nH]c2cc(Br)ccc12)C(F)(F)F
Ki [1]: 367 nM

CCC(=O)NCCc1c(-c2ccccc2)[nH]c2ccccc12
Activity [2]: Agonist
EC50 [3]: 50 nM

CCCC(=O)NCCc1c(Br)[nH]c2cc(Br)ccc12
Ki [1]: 2.3 nM
Activity [4]: Partial agonist

CC(=O)NCCc1c(Br)[nH]c2cc(Br)ccc12
Ki [1]: 122 nM
Activity [4]: Partial agonist

O=C(NCCc1c[nH]c2ccccc12)C(F)(F)F
Ki [1]: 377 nM
Activity [5]: Partial agonist

CCC(=O)NCCc1c[nH]c2ccccc12
Ki [1]: 398 nM

O=C(CBr)NCCc1c(Br)[nH]c2ccccc12
Ki [1]: 14 nM
Activity [2]: Agonist

O=C(NCCc1c(Br)[nH]c2cc(Br)ccc12)C1CC1
Ki [1]: 138 nM
Activity [2]: Agonist

CCC(=O)NCCc1c(Br)[nH]c2cc(Br)ccc12
Ki [1]: 27 nM

CCCC(=O)NCCc1c(-c2ccccc2)[nH]c2ccccc12
Activity [4]: Partial agonist

O=C(NCCc1c(-c2ccccc2)[nH]c2ccccc12)C(F)(F)F
Activity [4]: Partial agonist

COc1ccc2[nH]cc(CCNC(C)=O)c2c1
Activity [2]: Agonist

O=C(CBr)NCCc1c[nH]c2ccccc12
Ki [1]: 153 nM

CC(=O)NCCc1c(-c2ccccc2)[nH]c2ccccc12
Activity [6]: Agonist
EC50 [3]: 70 nM

CC(=O)NCCc1c(Br)[nH]c2ccccc12
Ki [1]: 138 nM
Activity [2]: Agonist

O=C(NCCc1c[nH]c2ccccc12)C1CC1
Ki [1]: 2600 nM

CCCC(=O)NCCc1c[nH]c2ccccc12
Ki [1]: 98 nM
Activity [5]: Partial agonist
